Assay results from US7238716B2, “Alkanoic acid derivatives process for their production and use thereof” (Takeda Pharmaceuticals Company Limited, priority 2000, dated 2007).
Where two headings read alike, the source gives them in different places.

Key:
PPARγ-RXRα heterodimer = molecular target: T1, PPARγ-RXRα heterodimer (Homo sapiens, UniProt P37231); assay: PPARγ-RXRα heterodimer ligand activity, luciferase reporter in PPARγ:RXRα:4ERPP/CHO-K1 cells (Test Example 3); format: cell-based; conditions: concentration for 50% of the maximum fold induction of luciferase activity; 48 hours, CHO-K1 cells
T1 construct: expressed in transfected cells; host or cells: CHO-K1
T1 sequence (P37231 1-477 isoform P37231-2): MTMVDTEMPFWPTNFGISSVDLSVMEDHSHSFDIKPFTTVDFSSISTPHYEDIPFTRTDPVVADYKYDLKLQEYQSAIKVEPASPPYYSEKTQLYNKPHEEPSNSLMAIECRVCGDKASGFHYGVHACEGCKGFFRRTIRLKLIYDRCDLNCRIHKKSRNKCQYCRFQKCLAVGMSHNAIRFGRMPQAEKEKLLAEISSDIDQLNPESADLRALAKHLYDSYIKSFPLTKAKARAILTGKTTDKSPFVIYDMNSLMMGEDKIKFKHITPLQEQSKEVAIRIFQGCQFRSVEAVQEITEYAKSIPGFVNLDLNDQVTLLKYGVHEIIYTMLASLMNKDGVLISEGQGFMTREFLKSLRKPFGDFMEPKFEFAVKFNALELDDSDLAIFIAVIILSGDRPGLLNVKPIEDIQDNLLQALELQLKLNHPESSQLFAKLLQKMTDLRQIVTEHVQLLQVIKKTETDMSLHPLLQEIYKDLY
T1 sequence (P19793 1-462 partner): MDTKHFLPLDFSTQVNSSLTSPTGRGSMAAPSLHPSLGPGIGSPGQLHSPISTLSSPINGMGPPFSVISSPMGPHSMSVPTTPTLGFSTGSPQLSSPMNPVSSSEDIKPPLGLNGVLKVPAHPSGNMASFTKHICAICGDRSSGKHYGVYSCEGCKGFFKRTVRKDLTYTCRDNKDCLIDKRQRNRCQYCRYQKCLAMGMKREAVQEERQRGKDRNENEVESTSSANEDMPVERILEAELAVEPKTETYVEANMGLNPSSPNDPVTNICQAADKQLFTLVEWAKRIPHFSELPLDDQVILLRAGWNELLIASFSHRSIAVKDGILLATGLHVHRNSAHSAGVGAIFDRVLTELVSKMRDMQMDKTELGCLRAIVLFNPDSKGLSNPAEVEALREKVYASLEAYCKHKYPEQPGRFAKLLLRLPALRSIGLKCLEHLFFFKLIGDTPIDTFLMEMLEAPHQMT
In short: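 CHO-K1 cells stably carrying hPPARγ/RXR expression plasmid and 4ERPP-TK luciferase reporter, treated 48 h at 37 °C in HAM F12 with 0.1% fatty-acid-free BSA. Luciferase fold induction taken over untreated cells; EC50 at 50% of maximal fold induction.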

KKAY mice = assay: Hypoglycemic and hypolipidemic actions in mice (Test Example 1); format: in vivo; conditions: Mus musculus, po, 96 h, four days; for inhibition in vivo at 0.005 %: 0.005% in powdery diet; for inhibition in vivo at 0.01 %: 0.01% in powdery diet
In short: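 Compounds given in powdered diet at 0.01% or 0.005% ad libitum for four days to KKAY mice (11–12 weeks old, 5 per group). Plasma glucose and triglyceride measured enzymatically from orbital blood; values are percent reduction relative to untreated group taken as 100%.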

[1] = percent reduction of plasma glucose level vs non-administration group, read-out: hypoglycemic action (%)
[2] = percent reduction of plasma triglyceride level vs non-administration group, read-out: hypolipidemic action (%)

| Compound | EC50 (PPARγ-RXRα heterodimer) | inhibition in vivo at 0.005 % (KKAY mice; [1]) | inhibition in vivo at 0.005 % (KKAY mice; [2]) | inhibition in vivo at 0.01 % (KKAY mice; [1]) | inhibition in vivo at 0.01 % (KKAY mice; [2]) |
| --- | --- | --- | --- | --- | --- |
| Cc1oc(-c2ccccc2)nc1CCOc1ccc(COc2ccccc2CC(=O)O)cc1 [Example 58, 2-[2-[4-[2-(5-methyl-2-phenyl-4-oxazolyl)ethoxy]benzyloxy]phenyl]acetic acid] | 120 nM | 57% | 75% | – | – |
| CCOc1ccc(OCc2ccc(OCc3nc(-c4ccccc4)oc3C)cc2)c(CCC(=O)O)c1 [Example 29, 3-[5-ethoxy-2-[4-[(5-methyl-2-phenyl-4-oxazolyl)methoxy]benzyloxy]phenyl]propionic acid] | 25 nM | – | – | 58% | 67% |
| CCOc1ccc(OCc2ccc(OCc3nc(-c4ccccc4)oc3C)cc2)cc1CCC(=O)O [Example 7, 3-[2-ethoxy-5-[4-[(5-methyl-2-phenyl-4-oxazolyl)methoxy]benzyloxy]phenyl]propionic acid] | 36 nM | – | – | 48% | 62% |
| Cc1oc(-c2ccccc2)nc1COc1ccc(COc2ccccc2CC(=O)O)cc1 [Example 11, 2-[2-[4-[(5-methyl-2-phenyl-4-oxazolyl)methoxy]benzyloxy]phenyl]acetic acid] | 62 nM | 56% | 84% | – | – |
| CCOc1ccc(OCc2ccc(OCc3nc(-c4ccccc4)oc3C)cc2)c(CC(=O)O)c1 [Example 26, 2-[5-ethoxy-2-[4-[(5-methyl-2-phenyl-4-oxazolyl)methoxy]benzyloxy]phenyl]acetic acid] | 35 nM | – | – | 53% | 88% |
| Cc1oc(-c2ccccc2)nc1COc1ccc(COc2ncccc2CC(=O)O)cc1 [Example 36, 2-[2-[4-[(5-methyl-2-phenyl-4-oxazolyl)methoxy]benzyloxy]-3-pyridyl]acetic acid] | 33 nM | 55% | 71% | – | – |
| Cc1oc(-c2ccccc2)nc1COc1ccc(COc2ccccc2CC(=O)O)cn1 [Example 41, 2-[2-[[6-[(5-methyl-2-phenyl-4-oxazolyl)methoxy]-3-pyridyl]methoxy]phenyl]acetic acid] | 15 nM | 48% | 93% | – | – |

Continued, in another order:

| EC50 (PPARγ-RXRα heterodimer) | Compound | inhibition in vivo at 0.005 % (KKAY mice; [1]) | inhibition in vivo at 0.005 % (KKAY mice; [2]) | inhibition in vivo at 0.01 % (KKAY mice; [1]) | inhibition in vivo at 0.01 % (KKAY mice; [2]) |
| --- | --- | --- | --- | --- | --- |
| 59 nM | Cc1oc(-c2ccccc2)nc1COc1cc(COc2ncccc2CC(=O)O)on1 [Example 129, 2-[2-[[3-[(5-methyl-2-phenyl-4-oxazolyl)methoxy]-5-isoxazolyl]methoxy]-3-pyridyl]acetic acid] | 45% | 93% | – | – |
| 87 nM | Cc1oc(-c2ccccc2)nc1CCc1noc(COc2ccccc2CC(=O)O)n1 [Example 107, 2-[2-[[3-[2-(5-methyl-2-phenyl-4-oxazolyl)ethyl]-1,2,4-oxadiazol-5-yl]methoxy]phenyl]acetic acid] | 40% | 39% | – | – |
| 11 nM | Cc1oc(-c2ccc3ccccc3c2)nc1COc1ccc(COc2ncccc2CC(=O)O)cc1 [Example 130, 2-[2-[4-[5-methyl-2-(2-naphthyl)-4-oxazolylmethoxy]benzyloxy]-3-pyridyl]acetic acid] | 55% | 63% | – | – |
| 20 nM | Cc1oc(-c2ccccc2)nc1COc1cc(COc2cccc(CC(=O)O)c2)ccn1 [Example 62, 2-[3-[2-[(5-methyl-2-phenyl-4-oxazolyl)methoxy]-4-pyridylmethoxy]phenyl]acetic acid] | 47% | 44% | – | – |
| 42 nM | Cc1ccc(CC(=O)O)c(OCc2ccc(OCc3nc(-c4ccccc4)oc3C)cc2)n1 [Example 110, 2-[6-methyl-2-[4-[(5-methyl-2-phenyl-4-oxazolyl)methoxy]benzyloxy]-3-pyridyl]acetic acid] | 51% | 74% | – | – |
